Measured values: the supplement of paper PMC10307832

Legend:
Experiment in all cases: relative viability (nuclei count vs DMSO), 5 days (fraction); higher = more cells survive
AGI-6780 + Phenformin = compound: O=C(Nc1cccc(C(F)(F)F)c1)Nc1cc(S(=O)(=O)NC2CC2)ccc1-c1ccsc1 [AGI-6780] + N=C(N)NC(=N)NCCc1ccccc1 [Phenformin] (partner 250 µM)
Summary of the method: (§1)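 Relative viability is defined as nuclei in treated wells over nuclei in vehicle wells. Duplicate plates were run and medians reported. Lung cancer cell lines in 1536-well plates were dosed by pin tool one day after seeding, with one drug or with a fixed anchor-drug dose plus five library-drug doses (not always all listed) in √10 steps, and nuclei were counted after 5 days.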

AGI-6780 + Trametinib = compound: O=C(Nc1cccc(C(F)(F)F)c1)Nc1cc(S(=O)(=O)NC2CC2)ccc1-c1ccsc1 [AGI-6780] + CC(=O)Nc1cccc(-n2c(=O)n(C3CC3)c(=O)c3c(Nc4ccc(I)cc4F)n(C)c(=O)c(C)c32)c1 [Trametinib] (partner 0.02 µM)
Summary of the method: as §1

AGI-6780 + OSI-027 = compound: O=C(Nc1cccc(C(F)(F)F)c1)Nc1cc(S(=O)(=O)NC2CC2)ccc1-c1ccsc1 [AGI-6780] + COc1cccc2cc(-c3nc([C@H]4CC[C@H](C(=O)O)CC4)n4ncnc(N)c34)[nH]c12 [OSI-027] (partner 0.5 µM)
Summary of the method: as §1

AGI-6780 + Crizotinib = compound: O=C(Nc1cccc(C(F)(F)F)c1)Nc1cc(S(=O)(=O)NC2CC2)ccc1-c1ccsc1 [AGI-6780] + C[C@@H](Oc1cc(-c2cnn(C3CCNCC3)c2)cnc1N)c1c(Cl)ccc(F)c1Cl [Crizotinib] (partner 1 µM)
Summary of the method: as §1

Cell Line	relative viability (AGI-6780 + Phenformin; first compound 0.08 µM)	relative viability (AGI-6780 + Phenformin; first compound 0.253 µM)	relative viability (AGI-6780 + Phenformin; first compound 0.8 µM)	relative viability (AGI-6780 + Phenformin; first compound 2.53 µM)	relative viability (AGI-6780 + Phenformin; first compound 8 µM)	relative viability (AGI-6780 + Trametinib; first compound 0.08 µM)	relative viability (AGI-6780 + Trametinib; first compound 0.253 µM)	relative viability (AGI-6780 + Trametinib; first compound 0.8 µM)	relative viability (AGI-6780 + Trametinib; first compound 2.53 µM)	relative viability (AGI-6780 + Trametinib; first compound 8 µM)	relative viability (AGI-6780 + OSI-027; first compound 0.08 µM)	relative viability (AGI-6780 + OSI-027; first compound 0.253 µM)	relative viability (AGI-6780 + OSI-027; first compound 0.8 µM)	relative viability (AGI-6780 + OSI-027; first compound 2.53 µM)	relative viability (AGI-6780 + OSI-027; first compound 8 µM)	relative viability (AGI-6780 + Crizotinib; first compound 0.08 µM)	relative viability (AGI-6780 + Crizotinib; first compound 0.253 µM)	relative viability (AGI-6780 + Crizotinib; first compound 0.8 µM)	relative viability (AGI-6780 + Crizotinib; first compound 2.53 µM)	relative viability (AGI-6780 + Crizotinib; first compound 8 µM)
NCI-H2126	0.543	0.568	0.539	0.526	0.539	0.613	0.601	0.507	0.479	0.566	0.711	0.88	0.742	0.618	0.815	1.1	1.01	1.03	1.02	1.05
NCI-H2170	0.413	0.459	0.631	0.422	0.403	1.03	0.881	0.997		0.863	0.694	0.762	0.768	0.596	0.733	1.28	1.14	1.36		1.24
NCI-H2228	0.341	0.278	0.31	0.347	0.393	0.447	0.508	0.505	0.307	0.607	0.617	0.589	0.488	0.367	0.685	0.492	0.584	0.453	0.368	0.512
NCI-H2347	0.424	0.574	0.378	0.351	0.373	0.276	0.289	0.278	0.287	0.274	0.403	0.491	0.333	0.378	0.507	0.733	0.738	0.59	0.663	0.801
NCI-H2405	0.431	0.381	0.279	0.339	0.382		0.649	0.57	0.492	0.583	0.671	0.651	0.525	0.549	0.596	0.839	0.801	0.583	0.827	0.829
NCI-H3122	0.326	0.378	0.421	0.399	0.36	0.212	0.261	0.239	0.208	0.329	0.998	0.913	1.08	0.727	1.01	0.252	0.291	0.301	0.252	0.293
